These results are taken from paper doi:10.1101/2024.12.13.628427v1 (biorxiv, 2024).

The term IC50 denotes the concentration that inhibits the measured activity by half. A higher IC50 goes with weaker potency in that assay.

This test addresses T1, FBXO21 (Homo sapiens, UniProt O94952).
T1 sequence (O94952 1-628): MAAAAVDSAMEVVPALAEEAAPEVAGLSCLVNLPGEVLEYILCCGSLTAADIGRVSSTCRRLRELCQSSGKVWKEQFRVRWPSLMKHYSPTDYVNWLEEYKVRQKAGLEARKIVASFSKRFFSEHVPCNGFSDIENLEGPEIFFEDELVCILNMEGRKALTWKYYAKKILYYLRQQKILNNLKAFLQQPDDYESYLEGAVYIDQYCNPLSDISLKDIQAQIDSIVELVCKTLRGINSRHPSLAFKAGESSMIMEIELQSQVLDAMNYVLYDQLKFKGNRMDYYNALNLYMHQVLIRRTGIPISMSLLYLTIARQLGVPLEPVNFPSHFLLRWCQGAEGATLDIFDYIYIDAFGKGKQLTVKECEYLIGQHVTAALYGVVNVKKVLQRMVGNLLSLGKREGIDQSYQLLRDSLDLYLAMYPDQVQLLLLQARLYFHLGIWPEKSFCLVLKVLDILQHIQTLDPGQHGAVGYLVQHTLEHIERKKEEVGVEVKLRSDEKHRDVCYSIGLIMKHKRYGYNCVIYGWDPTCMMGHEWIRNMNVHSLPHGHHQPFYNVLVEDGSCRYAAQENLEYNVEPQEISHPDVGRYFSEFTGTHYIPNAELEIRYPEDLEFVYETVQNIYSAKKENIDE
Briefly: in vitro ubiquitination of GFP-p85α, Western blot. It is filed as biochemical. A general note: Immunoblotting shows a protein as a band on a membrane.

`O=C(O)Cc1cc(-c2ccc(F)cc2)ccc1-c1ccc(F)cc1` [57-057] showed an IC50 of 2.4 nM.
